# Where two headings read alike, the source gives them in different places.
# Molecular target: T1, canine cardiac cyclic nucleotide phosphodiesterase (PDE) fraction III (Canis lupus familiaris, UniProt A0A8I3NYE0)
# T1 construct: The fraction III isoenzyme was pooled and dialyzed; from tissue; host or cells: canine heart, soluble supernatant, DEAE cellulose fraction III (800 mM sodium acetate eluate)
# T1 sequence (A0A8I3NYE0 1-1135): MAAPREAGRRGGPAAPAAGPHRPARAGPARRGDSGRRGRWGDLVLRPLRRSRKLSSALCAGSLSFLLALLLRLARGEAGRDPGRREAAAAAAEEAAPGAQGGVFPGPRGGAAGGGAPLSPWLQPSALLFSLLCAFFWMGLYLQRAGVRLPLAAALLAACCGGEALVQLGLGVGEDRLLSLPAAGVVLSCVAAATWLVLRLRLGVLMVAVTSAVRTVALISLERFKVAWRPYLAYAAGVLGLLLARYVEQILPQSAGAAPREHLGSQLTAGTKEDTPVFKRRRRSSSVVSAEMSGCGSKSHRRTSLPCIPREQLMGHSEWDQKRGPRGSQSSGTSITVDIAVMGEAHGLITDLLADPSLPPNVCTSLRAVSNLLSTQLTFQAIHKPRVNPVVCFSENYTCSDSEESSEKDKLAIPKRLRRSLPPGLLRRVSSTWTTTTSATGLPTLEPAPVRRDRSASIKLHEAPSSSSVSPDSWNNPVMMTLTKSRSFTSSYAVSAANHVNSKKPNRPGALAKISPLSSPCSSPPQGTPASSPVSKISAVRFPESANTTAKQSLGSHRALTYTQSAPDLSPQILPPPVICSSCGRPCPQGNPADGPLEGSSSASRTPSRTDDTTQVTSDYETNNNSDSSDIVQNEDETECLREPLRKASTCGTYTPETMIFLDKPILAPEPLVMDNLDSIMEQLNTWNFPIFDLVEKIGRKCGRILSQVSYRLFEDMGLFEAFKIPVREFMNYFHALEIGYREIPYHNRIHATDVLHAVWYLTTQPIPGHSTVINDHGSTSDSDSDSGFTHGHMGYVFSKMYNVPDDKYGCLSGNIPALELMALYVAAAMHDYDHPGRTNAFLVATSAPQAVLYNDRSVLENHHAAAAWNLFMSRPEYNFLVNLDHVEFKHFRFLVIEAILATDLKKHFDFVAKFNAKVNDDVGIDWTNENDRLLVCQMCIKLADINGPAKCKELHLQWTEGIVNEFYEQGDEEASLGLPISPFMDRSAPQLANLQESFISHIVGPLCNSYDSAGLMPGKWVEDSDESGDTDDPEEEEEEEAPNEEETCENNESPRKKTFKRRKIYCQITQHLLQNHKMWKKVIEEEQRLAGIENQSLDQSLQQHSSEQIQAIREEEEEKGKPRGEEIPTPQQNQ
# Assay: Cyclic AMP phosphodiesterase assay with fraction III isoenzyme, comparative testing
# Assay type: biochemical
# [1] = Table I summary, canine cardiac PDE fraction III, read-out: PDE III inhibition (IC50)
# [2] = canine heart fraction III, 0.1 µM cyclic AMP, read-out: PDE III IC50
IC50 [1] [µM],IC50 [2] [µM],"Potency Difference (-vs+), PDE III inhibition (IC50) ((-) isomer versus (+) isomer) [x]","times more potent than the (+) isomer, inhibition of PDE III ((-) isomer versus (+) isomer) [times]","times more potent than the racemate, inhibition of PDE III ((-) isomer versus racemate)",Compound
8,8,,,,"CC1CC(=O)NN=C1c1ccc2c(c1)OCC(=O)N2 (single isomer, unassigned; isomer 6) [(+) isomer, 6-(3,4-dihydro-3-oxo-l,4(2H)-benzoxazin-7-yl)-2,3,4,5-tetrahydro-5-methyl-pyridazin-3-one]"
0.18,0.18,44,~44,approximately 4 times,"CC1CC(=O)NN=C1c1ccc2c(c1)OCC(=O)N2 (single isomer, unassigned; isomer 6) [(-) isomer, 6-(3,4-dihydro-3-oxo-l,4(2H)-benzoxazin-7-yl)-2,3,4,5-tetrahydro-5-methyl-pyridazin-3-one]"
